From ChEMBL document CHEMBL3774357, “Discovery of potent and selective CDK8 inhibitors from an HSP90 pharmacophore” (Bioorg Med Chem Lett, 2016)
Values after ≈ are worked out from the molar mass of the structure shown.

Columns and labels:
[1] = Oral bioavailability in rat; type: ADME, organism-based; conditions: in vivo
[2] = Oral bioavailability in mouse; type: ADME, organism-based; conditions: in vivo
[3] = Thermodynamic solubility of the compound; type: physicochemical; conditions: read-out: Therm_solubility
[4] = Solubility of the compound in PBS at pH 7.4; type: physicochemical
[5] = Volume of distribution at steady state in dog; type: ADME, organism-based, Canis lupus familiaris; conditions: in vivo, read-out: Vdss
[6] = Solubility of the compound in FaSSIF at pH 6.4; type: physicochemical
[7] = Volume of distribution at steady state in monkey; type: ADME, organism-based, Macaca mulatta; conditions: rhesus monkey, in vivo; read-out: Vdss
[8] = Volume of distribution at steady state in mouse; type: ADME, organism-based; conditions: in vivo, read-out: Vdss
[9] = Oral bioavailability in dog; type: ADME, organism-based, Canis lupus familiaris; conditions: in vivo
[10] = Oral bioavailability in monkey; type: ADME, organism-based, Macaca mulatta; conditions: rhesus monkey, in vivo
[11] = Volume of distribution at steady state in rat; type: ADME, organism-based; conditions: in vivo, read-out: Vdss
[12] = Solubility of the compound in FeSSIF at pH 5.2; type: physicochemical

Row | SMILES | solubility kinetic (physchem) [µM] | further results
1 | Cn1cc(-c2ccc(Cc3n[nH]c4ccc(C(=O)N5CCOCC5)cc34)cc2)cn1 | 170 (≈ 68.2 µg/mL) | 
2 | Cn1cc(-c2ccc(Cc3n[nH]c4ccc(N5CCOCC5)cc34)cc2)cn1 | 153 (≈ 57.1 µg/mL) | 
3 | Cn1cc(-c2ccc(Cc3n[nH]c4ccc(C(=O)N5CCCCC5)cc34)cc2)cn1 | 106 (≈ 42.3 µg/mL) | 
4 | Cn1cc(-c2ccc(Cc3n[nH]c4ccc(C(=O)NC5CC5)cc34)cc2)cn1 | 76 (≈ 28.2 µg/mL) | 
5 | Cn1cc(-c2ccc(Cc3n[nH]c4ccc(NS(C)(=O)=O)cc34)cc2)cn1 | 153 (≈ 58.4 µg/mL) | 
6 | Cn1cc(-c2ccc(Cc3n[nH]c4ccc(C(=O)N5CC(O)C5)cc34)cc2)cn1 | 196 (≈ 75.9 µg/mL) | 
7 | Cn1cc(-c2ccc(Cc3n[nH]c4ccc(C(=O)N5CC[C@H](O)C5)cc34)cc2)cn1 | 200 (≈ 80.3 µg/mL) | 
8 | COC1CN(C(=O)c2ccc3[nH]nc(Cc4ccc(-c5cnn(C)c5)cc4)c3c2)C1 | 170 (≈ 68.2 µg/mL) | 
9 | CNC(=O)c1ccc2[nH]nc(CC(C)C)c2c1 | > 200 | 
10 | Cn1cc(-c2ccc(Cc3n[nH]c4ccc(N5CCCC5=O)cc34)cc2)cn1 | 147 (≈ 54.6 µg/mL) | 
11 | CNC(=O)c1ccc2[nH]nc(Cc3ccc4c(cnn4C)c3)c2c1 | > 200 | bioavailability [1]: 88%; bioavailability [2]: 50%; solubility thermodynamic [3]: 6 µg/mL (≈ 18.8 µM); solubility [4]: 6 µg/mL (≈ 18.8 µM); Vd [5]: 1.8 L/kg; solubility [6]: 32 µg/mL (≈ 100 µM); Vd [7]: 0.95 L/kg; Vd [8]: 0.69 L/kg; bioavailability [9]: 85%; bioavailability [10]: 26%; Vd [11]: 0.85 L/kg; solubility [12]: 59 µg/mL (≈ 185 µM)
12 | Cn1cc(-c2ccc(Cc3n[nH]c4ccc(-c5cc(N)ccn5)cc34)cc2)cn1 | 53 (≈ 20.2 µg/mL) | 
13 | Cn1cnc(-c2ccc3[nH]nc(Cc4ccc(-c5cnn(C)c5)cc4)c3c2)c1 | 6 (≈ 2.21 µg/mL) | 
14 | CNC(=O)c1ccc2[nH]nc(Cc3ccc4cnn(C)c4c3)c2c1 | 192 (≈ 61.3 µg/mL) | 
15 | CC(=O)NCCNc1ccc2[nH]nc(Cc3ccc(-c4cnn(C)c4)cc3)c2c1 | 183 (≈ 71.1 µg/mL) | 
16 | Cn1cc(-c2ccc(Cc3n[nH]c4ccc(S(=O)(=O)NC5CC5)cc34)cc2)cn1 | 107 (≈ 43.6 µg/mL) | 
17 | CNC(=O)c1ccc2[nH]nc(Cc3cccc(C)c3)c2c1 | 167 (≈ 46.7 µg/mL) | 
18 | Cn1cc(-c2ccc(Cc3n[nH]c4ccc(C(=O)N5CCNCC5)cc34)cc2)cn1 | 186 (≈ 74.5 µg/mL) | 
19 | Cn1cc(-c2ccc(Cc3n[nH]c4ccc(C(=O)N5CC(F)(F)C5)cc34)cc2)cn1 | 89 (≈ 36.3 µg/mL) | 
20 | COC1CN(C(=O)c2ccc3[nH]nc(Cc4ccc5c(cnn5C)c4)c3c2)C1 | > 200 | 
21 | Cn1ncc2cc(Cc3n[nH]c4ccc(C(=O)N5CC[C@H](O)C5)cc34)ccc21 | > 200 | 
22 | Cn1cc(-c2ccc(Cc3n[nH]c4ccc(-c5nccn5C)cc34)cc2)cn1 | 96 (≈ 35.4 µg/mL) | 
23 | CNC(=O)c1ccc2[nH]nc(Cc3ccc(-c4cnn(CC(C)(C)O)c4)cc3)c2c1 | 182 (≈ 73.4 µg/mL) | solubility thermodynamic [3]: 26 µg/mL (≈ 64.4 µM)
24 | Cn1ncc2cc(Cc3n[nH]c4ccc(C(=O)N5CCC(F)(F)C5)cc34)ccc21 | 157 (≈ 62.1 µg/mL) | 
25 | CNC(=O)c1ccc2[nH]nc(Cc3ccc(OC)c(OC)c3)c2c1 | 176 (≈ 57.3 µg/mL) | 
26 | CNC(=O)c1ccc2[nH]nc(Cc3ccc(-c4cnn(C)c4)cc3)c2c1 | 169 (≈ 58.4 µg/mL) | solubility thermodynamic [3]: 6 µg/mL (≈ 17.4 µM)
27 | Cn1cc(-c2ccc(Cc3n[nH]c4ccc(C(=O)N5CCC(F)(F)C5)cc34)cc2)cn1 | 104 (≈ 43.8 µg/mL) | 
28 | Cn1cc(-c2ccc(Cc3n[nH]c4ccc(C(=O)N5CC[C@@H](O)C5)cc34)cc2)cn1 | 181 (≈ 72.7 µg/mL) | 
29 | CC(=O)Nc1ccc2[nH]nc(Cc3ccc(-c4cnn(C)c4)cc3)c2c1 | 115 (≈ 39.7 µg/mL) | 
30 | Cn1cc(-c2ccc(Cc3n[nH]c4ccc(C(N)=O)cc34)cc2)cn1 | 173 (≈ 57.3 µg/mL) | 
